In publication PMC11855478, “Bicyclic N,S-Acetals Containing Fused Cysteine-Amide System as New Heterocyclic Class Targeting Human Farnesyltransferase (FTase-h)” (International Journal of Molecular Sciences, 2025):

Tests used:
[1] = test system: SK-MEL-2 (Melanoma); test: NCI one dose, SK-MEL-2; format: cell-based, human; details: SK-MEL-2, 1.00E-5 Molar one dose
Procedure: (§1) 3.4. Cell Proliferation Assay
(§2) Selected compounds were tested on a panel of 60 human cancer cell lines at the National Cancer Institute (NCI), Germantown, MD, USA. The cytotoxicity studies were conducted using a 48 h exposure protocol using the sulfo-rhodamine B assay.

[2] = test system: UACC-62 (Melanoma); test: NCI one dose, UACC-62; format: cell-based, human; details: UACC-62, 1.00E-5 Molar one dose
Procedure: as §1, §2

[3] = test system: LOX IMVI (Melanoma); test: NCI one dose, LOX IMVI; format: cell-based, human; details: 1.00E-5 Molar one dose
Procedure: as §1, §2

[4] = test system: SNB-19 (CNS Cancer); test: NCI one dose, SNB-19; format: cell-based, human; details: SNB-19, 1.00E-5 Molar one dose
Procedure: as §1, §2

[5] = test system: NCI-H322M (Non-Small Cell Lung Cancer); test: NCI one dose, NCI-H322M; format: cell-based, human; details: 1.00E-5 Molar one dose
Procedure: as §1, §2

[6] = test system: SNB-75 (CNS Cancer); test: NCI one dose, SNB-75; format: cell-based, human; details: SNB-75, 1.00E-5 Molar one dose
Procedure: as §1, §2

[7] = test system: EKVX (Non-Small Cell Lung Cancer); test: NCI one dose, EKVX; format: cell-based, human; details: 1.00E-5 Molar one dose
Procedure: as §1, §2

[8] = test system: HT29 (Colon Cancer); test: NCI one dose, HT29; format: cell-based, human; details: HT29, 1.00E-5 Molar one dose
Procedure: as §1, §2

[9] = test system: HOP-92 (Non-Small Cell Lung Cancer); test: NCI one dose, HOP-92; format: cell-based, human; details: HOP-92, 1.00E-5 Molar one dose
Procedure: as §1, §2

[10] = test system: SK-OV-3 (Ovarian Cancer); test: NCI one dose, SK-OV-3; format: cell-based, human; details: SK-OV-3, 1.00E-5 Molar one dose
Procedure: as §1, §2

[11] = test system: HCT-15 (Colon Cancer); test: NCI one dose, HCT-15; format: cell-based, human; details: HCT-15, 1.00E-5 Molar one dose
Procedure: as §1, §2

[12] = test system: UACC-257 melanoma cells; test: NCI one dose, UACC-257; format: cell-based, human; details: UACC-257, 1.00E-5 Molar one dose
Procedure: as §1, §2

[13] = test system: HOP-62 (Non-Small Cell Lung Cancer); test: NCI one dose, HOP-62; format: cell-based, human; details: HOP-62, 1.00E-5 Molar one dose
Procedure: as §1, §2

[14] = test system: BT-549 (Breast Cancer); test: NCI one dose, BT-549; format: cell-based, human; details: BT-549, 1.00E-5 Molar one dose
Procedure: as §1, §2

[15] = test system: MDA-MB-468 breast cancer cells; test: NCI one dose, MDA-MB-468; format: cell-based, human; details: MDA-MB-468, 1.00E-5 Molar one dose
Procedure: as §1, §2

[16] = test system: MCF7 (Breast Cancer); test: NCI one dose, MCF7; format: cell-based, human; details: MCF7, 1.00E-5 Molar one dose
Procedure: as §1, §2

[17] = test system: CCRF-CEM (Leukemia); test: NCI one dose, CCRF-CEM; format: cell-based, human; details: 1.00E-5 Molar one dose
Procedure: as §1, §2

[18] = test system: HCT-116 (Colon Cancer); test: NCI one dose, HCT-116; format: cell-based, human; details: HCT-116, 1.00E-5 Molar one dose
Procedure: as §1, §2

[19] = test system: ACHN (Renal Cancer); test: NCI one dose, ACHN; format: cell-based, human; details: 1.00E-5 Molar one dose
Procedure: as §1, §2

[20] = test system: OVCAR-5 (Ovarian Cancer); test: NCI one dose, OVCAR-5; format: cell-based, human; details: OVCAR-5, 1.00E-5 Molar one dose
Procedure: as §1, §2

[21] = test system: OVCAR-3 (Ovarian Cancer); test: NCI one dose, OVCAR-3; format: cell-based, human; details: OVCAR-3, 1.00E-5 Molar one dose
Procedure: as §1, §2

[22] = test system: SK-MEL-28 (Melanoma); test: NCI one dose, SK-MEL-28; format: cell-based, human; details: SK-MEL-28, 1.00E-5 Molar one dose
Procedure: as §1, §2

[23] = test system: SF-295 (CNS Cancer); test: NCI one dose, SF-295; format: cell-based, human; details: SF-295, 1.00E-5 Molar one dose
Procedure: as §1, §2

[24] = test system: NCI-H522 non-small cell lung cancer cells; test: NCI cell proliferation, NCI-H522; format: cell-based, human; details: for inhibition at 10 µM: Homo sapiens, NCI-H522, read-out: % Cancer cell growth Inhibition (NCI-H522); for Growth Percent: NCI-H522, 1.00E-5 Molar one dose
Procedure: as §1, §2

[25] = test system: HS 578T (Breast Cancer); test: NCI one dose, HS 578T; format: cell-based, human; details: 1.00E-5 Molar one dose
Procedure: as §1, §2

[26] = molecular target: human farnesyltransferase (FTase) (Homo sapiens, UniProt P49354+P49356); test: FTase inhibitory assay (fluorescence, Dansyl-GCVLS); format: biochemical; details: for IC50: human FTase in vitro; for % FTI: inhibition of human FTase at 100 μM of tested compound, mean of two experiments
Procedure: With 40 new products in hand, the determination of their inhibitory activity on human farnesyl-transferase (FTase) in vitro was first undertaken. Dimethyl sulfoxide (DMSO) was used as the negative control, and Chaetomellic acid A was the positive reference in all assays. At the outset, and in order to select only significant results, products with an inhibitory power greater than 60% at an initial screening concentration of 100 µM were retained for the determination of their IC50 and, therefore, for further discussion. Moreover, given the number of products tested, they are grouped into three subfamilies on the basis of the degree of the sulphur atom oxidation (series of sulfides, series of sulfoxides, and series of sulfones), and the results obtained are grouped in Table 1, Table 2 and Table 3.
3.3. FTase Inhibitory Assay
Assays were realized in 96-well plates, prepared with a Biomek NKMC and a Biomek 3000 from Beckman Coulter, and read on a Wallac Victor fluorimeter from PerkinElmer. Per well, 20 µL of farnesyl pyrophosphate (10 μM) was added to 180 µL of a solution containing 2 µL of varied concentrations of potential inhibitors (dissolved in DMSO) and 178 μL of a solution composed of 10 μL of partially purified recombinant human FTase (15 µg mL^−1) and 1.0 µL of Dansyl-GCVLS peptide (in the following buffer: 5.6 mM DTT, 5.6 mM MgCl2, 12 μM ZnCl2 and 0.2% (w/v) octyl-β-D-glucopyranoside, 52 mM Tris/HCl, pH 7.5). Fluorescence was recorded for 15 min (0.7 s per well, 20 repeats) at 30 °C with an excitation filter at 340 nm and an emission filter of 486 nm. Each measurement was reproduced twice, in duplicate. The kinetic experiments were realized under the same conditions, either with FPP as varied substrate with a constant concentration of Dns-GCVLS of 2.5 μM or with Dns-GCVLS as varied substrate with a constant concentration of FPP of 10 μM. Non-linear regressions were performed using the Excel software.

Compound	Growth Percent [1] [%]	Growth Percent [2] [%]	Growth Percent [3] [%]	Growth Percent [4] [%]	Growth Percent [5] [%]	Growth Percent [6] [%]	Growth Percent [7] [%]	Growth Percent [8] [%]	Growth Percent [9] [%]	Growth Percent [10] [%]	Growth Percent [11] [%]	Growth Percent [12] [%]	Growth Percent [13] [%]	Growth Percent [14] [%]	Growth Percent [15] [%]	Growth Percent [16] [%]	Growth Percent [17] [%]	Growth Percent [18] [%]	Growth Percent [19] [%]	Growth Percent [20] [%]	further results
O=C(NCc1ccccc1)[C@@H]1CS[C@H]2c3ccccc3C(=O)N12 [4aA]	105.03	97.72	97.27	96.70	102.34	84.04	105.39	99.44	87.72	102.04	103.68	96.60	97.31	93.57	105.86	87.71	96.52	87.66	102.35	91.72	Growth Percent [21]: 112.79%; Growth Percent [22]: 110.09%; Growth Percent [23]: 99.96%; inhibition at 10 µM [24]: 13%; Growth Percent [24]: 79.32%; Growth Percent [25]: 107.68%
O=C(NCc1ccccc1C(F)(F)F)[C@@H]1CS[C@H]2c3ccccc3C(=O)N12 [4aC]	99.87	88.82	102.58	95.80	103.27	85.21	99.35	91.65	77.56	85.91	103.73	86.31	87.37	96.07	112.27	90.35	93.25	87.63	99.65	83.18	IC50 [26]: 594 nM; % FTI [26]: 62%; Growth Percent [21]: 106.48%; Growth Percent [22]: 99.12%; Growth Percent [23]: 94.85%; inhibition at 10 µM [24]: 22%; Growth Percent [24]: 78.18%; Growth Percent [25]: 104.53%
O=C(NCc1cccc(C(F)(F)F)c1)[C@@H]1CS[C@H]2c3ccccc3C(=O)N12 [4aD]	94.10	89.84	100.26	95.15	93.97	75.92	103.29	91.88	79.43	88.01	100.16	89.32	85.91	92.70	98.77	91.11	99.20	91.63	101.09	97.67	% FTI [26]: 37%; Growth Percent [21]: 104.21%; Growth Percent [22]: 108.89%; Growth Percent [23]: 95.03%; inhibition at 10 µM [24]: 25%; Growth Percent [24]: 74.73%; Growth Percent [25]: 110.09%
COc1ccc(CNC(=O)[C@@H]2CS[C@H]3c4ccccc4C(=O)N23)cc1 [4aF]	118.58	91.16	100.31	90.14	88.19	114.38	106.31	103.88	86.03	99.01	100.29	97.39	94.33	103.55	122.00	85.78	97.27	101.21	95.49	95.48	IC50 [26]: 2730 nM; % FTI [26]: 80%; Growth Percent [21]: 106.29%; Growth Percent [22]: 102.14%; Growth Percent [23]: 95.57%; inhibition at 10 µM [24]: 13%; Growth Percent [24]: 87.40%; Growth Percent [25]: 104.20%
O=C(NCc1ccc(Cl)cc1Cl)[C@@H]1CS[C@H]2c3ccccc3C(=O)N12 [4aH]	99.61	85.33	100.51	97.06	91.63	89.63	100.24	96.30	75.56	103.37	102.53	96.52	97.52	97.76	91.86	94.95	92.66	83.47	99.60	104.58	% FTI [26]: 52%; Growth Percent [21]: 107.79%; Growth Percent [22]: 103.04%; Growth Percent [23]: 95.60%; inhibition at 10 µM [24]: 27%; Growth Percent [24]: 72.97%; Growth Percent [25]: 113.78%
COc1cc(CNC(=O)[C@@H]2CS[C@H]3c4ccccc4C(=O)N23)cc(OC)c1OC [4aJ]	95.25	92.01	99.61	92.64	107.00	86.61	101.46	103.83	93.68	93.11	107.89	98.86	94.96	92.77	91.25	104.04	96.01	92.64	100.59	94.62	% FTI [26]: 23%; Growth Percent [21]: 105.82%; Growth Percent [22]: 109.82%; Growth Percent [23]: 107.19%; inhibition at 10 µM [24]: 17%; Growth Percent [24]: 83.00%; Growth Percent [25]: 101.31%
